Our source for the EC50 values is patent publication US20230069963A1, “PYRAZOLO[1,5-A]PYRIMIDINE MACROCYCLIC COMPOUND” (priority 2018, published 2023).

Structures can show the parent of a compound that is named as a salt.

The experiment deals with RSV ATCC VR-1540 (A2). As to the kind of experiment: microbe, parasite or virus in culture. The class given is cell-based. The following applies: human respiratory syncytial virus, HEp-2, 96 h; Hep2 cells, incubated for 4 days, CPE detected with XTT assay (absorbance 450 nm); read-out: EC50 (nmol/L) against RSV A2 strain. For orientation: Formazan colour is commonly taken as a measure of viable cells.
For `Cc1ccc2c(c1)C(=O)N1CCCC[C@H]1c1cc3nc(NCCN)cc(n3n1)N(C)CCCCO2` [Example 245, (23aS)-18-[(2-aminoethyl)amino]-8,16-dimethyl-1,3,4,13,14,15,16,23a-octahydro-2H,6H,12H-23,20-(metheno)pyrido[2,1-k]pyrimido[6,1-g][1,6,8,9,12]benzoxatetraazacyclopentadecin-6-one hydrochloride], the EC50 was determined as 4.71 nmol/L.

With `CN1CCOc2ccc(Cl)cc2C(=O)N2CCCC[C@H]2c2cc3nc(N4CC(F)C4)cc(n3n2)N(C)CC1` [Example 162, (18aS)-2-chloro-13-(3-fluoroazetidin-1-yl)-8,11-dimethyl-6,7,8,9,10,11,19,20,21,22-decahydro-18aH,24H-18,15-(metheno)pyrido[2,1-l]pyrimido[6,1-h][1,4,7,9,10,13]benzoxapentaazacyclohexadecin-24-one], the EC50 worked out at 4.51 nmol/L.

Consider `Cc1nnc2n1CCN(C)c1cc(N3CC(N)C3)nc3cc(nn13)[C@@H]1CCCCN1C(=O)c1cc(Cl)ccc1OC2` [Example 328, (20aS)-15-(3-aminoazetidin-1-yl)-2-chloro-9,13-dimethyl-12,13,21,22,23,24-hexahydro-6H, 11H,20aH,26H-20,17-(metheno)pyrido[2,1-l]pyrimido[6,1-h][1,2,4]triazolo[3,4-c][1,4,7,9,10,13]benzoxapentaazacyclohexadecin-26-one], for which the EC50 was 9.48 nmol/L.

Consider `CN1CCCC(=O)NCC(C)(c2ccc(F)cc2)C(=O)N2CCCC[C@H]2c2cc3nc(N4CC(N)C4)cc1n3n2` (stereo partly drawn) [Example 371, (18aS)-3-(3-aminoazetidin-1-yl)-12-(4-fluorophenyl)-5,12-dimethyl-7,8,11,12,16,17,18,18a-octahydro-5H,15H-19,1-(metheno)pyrido[1,2-m]pyrimido[1,6-b][1,2,4,9,13]pentaazacyclopentadecine-9,13(6H,10H)-dione], for which the EC50 turned out to be 12.8 nmol/L.

Turning to `CCCc1cc2n3nc(cc3n1)[C@@H]1CCCCN1C(=O)c1cc(CN)ccc1OCC(=O)NCCN2C` [Example 101, (18aS)-2-(aminomethyl)-11-methyl-13-propyl-8,9,10,11,19,20,21,22-octahydro-18aH,24H-18,15-(metheno)pyrido[2,1-l]pyrimido[6,1-h][1,4,7,9,10,13]benzoxapentaazacyclohexadecine-7,24(6H)-dione], the EC50 was 11.9 nmol/L.

`[2H]C([2H])([2H])N1CCNC(=O)COc2ccc(F)cc2C(=O)N2CCCC[C@H]2c2cc3nc(C4CC4)cc1n3n2` [Example 94, (18aS)-13-cyclopropyl-2-fluoro-11-trideuteriomethyl-8,9,10,11,19,20,21,22-octahydro-18aH, 24H-18,15-(metheno)pyrido[2,1-l]pyrimido[6,1-h][1,4,7,9,10,13]benzoxapentaazacyclohexadecine-7,24(6H)-dione]: the EC50 amounted to 0.207 nmol/L.

In the case of `CN1CCNC(=O)COc2ccc(Cl)cc2C(=O)N2CCCCC2c2cc3nc(C4CC(O)C4)cc1n3n2` [Example 111, (18aS)-2-chloro-13-(cis-3-hydroxycyclobutyl)-11-methyl-8,9,10,11,19,20,21,22-octahydro-18aH,24H-18,15-(metheno)pyrido[2,1-l]pyrimido[6,1-h][1,4,7,9,10,13]benzoxapentaazacyclohexadecine-7,24(6H)-dione], the EC50 was 0.448 nmol/L.

For the compound `Cc1c(N2CC(N)C2)nc2cc3nn2c1N(C)CCNC(=O)COc1ccc(F)cc1C(=O)N1CCCC[C@@H]31` [Example 61, (18aS)-13-(3-aminoazetidin-1-yl)-2-fluoro-11,12-dimethyl-8,9,10,11,19,20,21,22-octahydro-18aH,24H-18,15-(metheno)pyrido[2,1-l]pyrimido[6,1-h][1,4,7,9,10,13]benzoxapentaazacyclohexadecine-7,24(6H)-dione], the EC50 was 1.77 nmol/L.
